The values below are quoted from earlier work in patent US20020068688A1, “Cleaning compositions” (Unilever Home & Personal Care USA, Division of Conopco, Inc., priority 2000, published 2002).

For this series the following is noted: grams of solid to form a saturated solution in 100 grams of water at 20° C.

Molecules are shown by their SMILES.

On to `NC(N)=O` [Urea], for which the “Water Solubility” value is over 100 g/100 g.
